According to patent US5358712A, “Radiopharmaceutical agents for the detection of Alzheimer's disease” (Regents of the University of Minnesota, priority 1993, dated 1994):
Blank lines part the entries; values can stand above or below the molecule they belong to.

Assays:
[1] = Blocking experiments: inhibition of radiotracer accumulation in the rat by coadministered compound; assay type: in vivo, rat (male Wistar); details: rat, iv, rat, iv, 60 min
Method: (§1) *Animals in group 1 received an iv injection of (+)4-[^125 l]HIPP
(§2) only. For groups 2, 3, and 4, the radiotracer was coadministered with the
(§3) hydrochlorides of (+)7 (0.53 mg/kg), (-)7 (0.53 mg/kg) and vesamicol (0.3
(§4) Four groups of male Wistar rats (n=3) were used in these experiments. All animals received an iv dose of 8-10 μCi of the radiotracer in 0.1 ml of 50% aq. ethanol. Additionally, in groups 2, 3 and 4, the radiotracer was coadministered with (+)-HBrPP.HCl(1.3 μmol/kg), (-)-HBrPP.HCl(1.3 μmol/kg) and (dl)-vesamicol hydrochloride (1.1 μmol/kg), respectively. At 60 min. post-injection, blood was collected by cardiac puncture and the animals sacrificed as described above. The data was analyzed as outlined above.
(§5) NOTE: The dose of radiotracer injected was 5-7 mCi. Group I was the
(§6) control, injected with the radiotracer only. Group II included the
(§7) simultaneous injection of "cold"(dl)3-HIPP (HCl) (0.53 mg/kg). Group III
(§8) included the simultaneous injection of (dl) vesamicol (HCl) (0.31 mg/kg).
(§9) All rats were sacrificed at one hour postinjection.
(§10) NOTE: Group I was the control, injected with the radiotracer only. Group
(§11) II included the simultaneous injection of "cold"(dl)3-HIPP (HCl) (0.53
(§12) mg/kg). Group III included the simultaneous injection of (dl) vesamicol
(§13) hydrochloride (0.31 mg/kg). The dose of radiotracer was 8-9 μCi. All
(§14) rats were sacrificed at one hour postinjection.
(§15) NOTE: Group I received (+)[^125 l]13 only. Group II received the (+)
(§16) radiotracer coinjected with 0.31 mg/kg (dl)vesamicol hydrochloride. Group
(§17) III received (-)[^125 l]13 only. Group IV received the (-) radiotrace
(§18) coinjected with 0.31 mg/kg (dl)vesamicol hydrochloride. All animals were
(§19) sacrificed at one hour postinjection. The dose of radiotracer injected pe

[2] = Tissue distribution (biodistribution) of radioiodinated compound in the rat; details: rat
Method: Four groups of male Wistar rats (with four animals per group) weighing 200-350 g were used in these experiments. Each animal received, while under ether anesthesia, an intravenous injection of the radiotracer (10-20 μCi) dissolved in 0.1 ml of 50% aqueous ethanol. At 5, 30, and 60 and 180 min. post-injection, blood was collected from the anesthetized animals by cardiac puncture, and the animal was immediately sacrificed by cardiectomy. The organs and tissues of interest were harvested, transferred to preweighed tubes and counted in a Beckman gamma counter. The tubes were subsequently reweighed to give the weight of the corresponding tissues. Preweighed tubes containing ^1 -ml samples of a 1:100 dilution of the injection dose were also counted and used as reference for calculating the tissue accumulation of radioactivity. The accumulation of radiotracer was expressed as a percentage of injected dose per gram of tissue.

vesamicol receptor = experiment: Blocking experiments: inhibition of radiotracer accumulation in the rat by coadministered compound; assay type: in vivo, rat (male Wistar); details: rat; for Brain: Blood Ratio / Heart: Blood Ratio: iv, 60 min
Method: as §1, §2, §3, §4, §5, §6, §7, §8, §9, §10, §11, §12, §13, §14, §15, §16, §17, §18, §19

[3] = blood, radiotracer only (control), read-out: radioactivity in blood
[4] = brain, + (dl)-vesamicol HCl 0.3 (Table 3) or 0.31 mg/kg, read-out: radioactivity in brain
[5] = brain, radiotracer only (control), read-out: radioactivity in brain
[6] = heart, + (dl)-vesamicol HCl 0.3 (Table 3) or 0.31 mg/kg, read-out: radioactivity in heart
[7] = heart, radiotracer only (control), read-out: radioactivity in heart
[8] = kidney, + (dl)-vesamicol HCl 0.3 (Table 3) or 0.31 mg/kg, read-out: radioactivity in kidney
[9] = kidney, radiotracer only (control), read-out: radioactivity in kidney
[10] = liver, + (dl)-vesamicol HCl 0.3 (Table 3) or 0.31 mg/kg, read-out: radioactivity in liver
[11] = liver, radiotracer only (control), read-out: radioactivity in liver
[12] = lung, + (dl)-vesamicol HCl 0.3 (Table 3) or 0.31 mg/kg, read-out: radioactivity in lung
[13] = lung, radiotracer only (control), read-out: radioactivity in lung
[14] = muscle, + (dl)-vesamicol HCl 0.3 (Table 3) or 0.31 mg/kg, read-out: radioactivity in muscle
[15] = muscle, radiotracer only (control), read-out: radioactivity in muscle
[16] = spleen, + (dl)-vesamicol HCl 0.3 (Table 3) or 0.31 mg/kg, read-out: radioactivity in spleen
[17] = spleen, radiotracer only (control), read-out: radioactivity in spleen
[18] = + (dl)-vesamicol HCl 0.3 (Table 3) or 0.31 mg/kg
[19] = + cold (dl)3-HIPP HCl 0.53 mg/kg

Compound: OC(Cc1ccc([125I])cc1)CN1CCC(c2ccccc2)CC1 (single isomer, unassigned; (-)) [(-)-4-[^125 l]HIPP, 2-Hydroxy-3-(4-iodophenyl)-1-(4-phenylpiperidyl)propane]
tissue uptake at 1 h ([1]; blood, + (+)-7 HCl 0.53 mg/kg, read-out: radioactivity in blood): 0.05 %ID/g | tissue uptake at 1 h ([1]; blood, + (-)-7 HCl 0.53 mg/kg, read-out: radioactivity in blood): 0.04 %ID/g | tissue uptake at 1 h ([1]; blood, + (dl)-vesamicol HCl 0.3 (Table 3) or 0.31 mg/kg, read-out: radioactivity in blood): 0.02 %ID/g | tissue uptake at 1 h [1, 3]: 0.02 %ID/g | tissue uptake at 1 h ([1]; brain, + (+)-7 HCl 0.53 mg/kg, read-out: radioactivity in brain): 0.28 %ID/g | tissue uptake at 1 h ([1]; brain, + (-)-7 HCl 0.53 mg/kg, read-out: radioactivity in brain): 0.29 %ID/g | tissue uptake at 1 h [1, 4]: 0.31 %ID/g | tissue uptake at 1 h [1, 5]: 0.93 %ID/g | tissue uptake at 1 h ([1]; heart, + (+)-7 HCl 0.53 mg/kg, read-out: radioactivity in heart): 0.12 %ID/g | tissue uptake at 1 h ([1]; heart, + (-)-7 HCl 0.53 mg/kg, read-out: radioactivity in heart): 0.13 %ID/g | tissue uptake at 1 h [1, 6]: 0.13 %ID/g | tissue uptake at 1 h [1, 7]: 0.79 %ID/g | tissue uptake at 1 h ([1]; kidney, + (+)-7 HCl 0.53 mg/kg, read-out: radioactivity in kidney): 0.46 %ID/g | tissue uptake at 1 h ([1]; kidney, + (-)-7 HCl 0.53 mg/kg, read-out: radioactivity in kidney): 0.42 %ID/g | tissue uptake at 1 h [1, 8]: 0.35 %ID/g | tissue uptake at 1 h [1, 9]: 1.9 %ID/g | tissue uptake at 1 h [1, 10]: 4.18 %ID/g | tissue uptake at 1 h [1, 11]: 2.68 %ID/g | tissue uptake at 1 h ([1]; lung, + (+)-7 HCl 0.53 mg/kg, read-out: radioactivity in lung): 1.64 %ID/g | tissue uptake at 1 h ([1]; lung, + (-)-7 HCl 0.53 mg/kg, read-out: radioactivity in lung): 1.04 %ID/g | tissue uptake at 1 h [1, 12]: 0.95 %ID/g | tissue uptake at 1 h [1, 13]: 3.63 %ID/g | tissue uptake at 1 h ([1]; muscle, + (+)-7 HCl 0.53 mg/kg, read-out: radioactivity in muscle): 0.07 %ID/g | tissue uptake at 1 h ([1]; muscle, + (-)-7 HCl 0.53 mg/kg, read-out: radioactivity in muscle): 0.08 %ID/g | tissue uptake at 1 h [1, 14]: 0.06 %ID/g | tissue uptake at 1 h [1, 15]: 0.21 %ID/g | tissue uptake at 1 h ([1]; spleen, + (+)-7 HCl 0.53 mg/kg, read-out: radioactivity in spleen): 0.57 %ID/g | tissue uptake at 1 h ([1]; spleen, + (-)-7 HCl 0.53 mg/kg, read-out: radioactivity in spleen): 0.57 %ID/g | tissue uptake at 1 h [1, 16]: 0.6 %ID/g | tissue uptake at 1 h [1, 17]: 1.42 %ID/g

decrease of concentration in the brain ([2]; 1 hour post-injection vs initial, listed as (+)-[^125 I]12): 20% | decrease of concentration in the brain ([2]; 3 hours post-injection vs initial, listed as (+)-[^125 I]12): 54% | initial accumulation in the rat brain ([2]; initial, listed as (+)-[^125 I]12): 2.08 % of the injected dose | Brain: Blood Ratio ([2]; iv, 5 min): 13.1 | Heart: Blood Ratio ([2]; iv, 5 min): 16.4 | Brain: Blood Ratio ([2]; iv, 60 min): 9.2 | Heart: Blood Ratio ([2]; iv, 60 min): 4.2 | Brain: Blood Ratio ([2]; iv, 180 min): 7.2 | Heart: Blood Ratio ([2]; iv, 180 min): 2.1 | radioactivity in brain ([2]; iv, 180 min): 0.56 % dose/g | effect of coadministered vesamicol on accumulation (in words) (vesamicol receptor): inhibited | Brain: Blood Ratio (vesamicol receptor; [18]): 2.14 | Heart: Blood Ratio (vesamicol receptor; [18]): 1.10 | Brain: Blood Ratio (vesamicol receptor; [19]): 1.92 | Heart: Blood Ratio (vesamicol receptor; [19]): 1.16 | Brain: Blood Ratio (vesamicol receptor; radiotracer only (control)): 8.49 | Heart: Blood Ratio (vesamicol receptor; radiotracer only (control)): 3.96
Compound: OC(Cc1cccc([125I])c1)CN1CCC(c2ccccc2)CC1 (single isomer, unassigned; (+)) [(+)-[^125 l]12] [2-Hydroxyl-3-(3-iodophenyl)-1-[1-(4-phenylpiperidinyl)]propane]

tissue uptake at 5 min ([2]; blood, iv, radioactivity in blood, 5 min): 0.1 %ID/g | tissue uptake at 1 h ([2]; blood, iv, radioactivity in blood, 60 min): 0.03 %ID/g | tissue uptake at 5 min ([2]; brain, iv, radioactivity in brain, 5 min): 1.43 %ID/g | tissue uptake at 1 h ([2]; brain, iv, radioactivity in brain, 60 min): 1.29 %ID/g | tissue uptake at 5 min ([2]; heart, iv, radioactivity in heart, 5 min): 1.34 %ID/g | tissue uptake at 1 h ([2]; heart, iv, radioactivity in heart, 60 min): 0.25 %ID/g | tissue uptake at 5 min ([2]; kidney, iv, radioactivity in kidney, 5 min): 3.12 %ID/g | tissue uptake at 1 h ([2]; kidney, iv, radioactivity in kidney, 60 min): 1.86 %ID/g | tissue uptake at 5 min ([2]; liver, iv, radioactivity in liver, 5 min): 1.19 %ID/g | tissue uptake at 1 h ([2]; liver, iv, radioactivity in liver, 60 min): 2.18 %ID/g | tissue uptake at 5 min ([2]; lung, iv, radioactivity in lung, 5 min): 7.87 %ID/g | tissue uptake at 5 min ([2]; muscle, iv, radioactivity in muscle, 5 min): 0.33 %ID/g | tissue uptake at 1 h ([2]; muscle, iv, radioactivity in muscle, 60 min): 0.14 %ID/g | tissue uptake at 5 min ([2]; spleen, iv, radioactivity in spleen, 5 min): 0.92 %ID/g | tissue uptake at 1 h ([2]; spleen, iv, radioactivity in spleen, 60 min): 0.9 %ID/g | tissue uptake at 1 h [1, 3]: 0.05 %ID/g | tissue uptake at 1 h [1, 4]: 0.24 %ID/g | tissue uptake at 1 h [1, 5]: 0.87 %ID/g | tissue uptake at 1 h [1, 6]: 0.08 %ID/g | tissue uptake at 1 h [1, 7]: 0.22 %ID/g | tissue uptake at 1 h [1, 8]: 0.41 %ID/g | tissue uptake at 1 h [1, 9]: 1.87 %ID/g | tissue uptake at 1 h [1, 10]: 2.53 %ID/g | tissue uptake at 1 h [1, 11]: 1.85 %ID/g | tissue uptake at 1 h [1, 12]: 0.42 %ID/g | tissue uptake at 1 h [1, 13]: 1.01 %ID/g | tissue uptake at 1 h [1, 14]: 0.06 %ID/g | tissue uptake at 1 h [1, 15]: 0.14 %ID/g | tissue uptake at 1 h [1, 16]: 0.33 %ID/g | tissue uptake at 1 h [1, 17]: 0.88 %ID/g
Compound: OC(CN1CCC(c2ccccc2)CC1)c1ccc([125I])cc1 (single isomer, unassigned; (+)) [(+)-[^125 l]13, 1-(4-Iodophenyl)-2-(4-phenylpiperidinyl)ethanol]
